Data as given in paper PMC8608967, “KDS2010, a Newly Developed Reversible MAO-B Inhibitor, as an Effective Therapeutic Candidate for Parkinson’s Disease” (Neurotherapeutics, 2021).

Columns and labels:
[1] = Toxicokinetics in 4-week repeated-dose study in cynomolgus monkeys (G218027); assay type: in vivo, cynomolgus monkey (Macaca fascicularis)
Description: In the repeated 4-week oral administration toxicity with 2-week recovery and toxicokinetic test (G218027), monkeys were assigned to 4 groups of 3 males and 3 females. Each group was orally administered KDS2010 at 0, 10, 20, or 40 mg/kg/day once a day for 4 weeks. Toxicity tests were conducted as described for study G217013. For toxicokinetic measurements, blood samples were collected pre-dose (time 0) and at 1, 2, 4, 6, 8, 10, and 24 h after oral administration on the first day (day 1) and the last day (week 4; day 28) of dosing.
A non-compartmental analysis module in Phoenix® WinNonlin® (version 6.4) (Certara Inc., CA, USA) was used to calculate pharmacokinetic (PK) parameters. Systemic exposure to KDS2010 was calculated by applying the linear trapezoidal rule to the area under the plasma concentration–time curve from time zero to the last quantifiable time point (AUClast), and the maximum observed peak plasma concentration (Cmax) and the time to reach Cmax (Tmax) were determined based on the observed data. The apparent terminal elimination half-life (t1/2) was calculated from the apparent terminal elimination rate constant using the formula t1/2 = 0.693/kel.

[2] = tested on: post-stroke recovery; design: method as in PMID 32640227; settings: long-term treatment accompanied by rehabilitation training; cited from earlier work
[3] = tested on: A53T mutant α-synuclein-overexpressing PD model rats; assay: A53T mutant α-synuclein rat model: TH staining; assay type: in vivo; settings: 10 mg/kg/day for 15 days starting 3 weeks after virus injection
Source text: (§1) Throughout the study, confounders were not controlled.

[4] = H2O2 scavenging capacity test (Amplex red/HRP); settings: 10 min incubation with H2O2 at RT
Description: To determine the H2O2 scavenging capacity of the test compound, H2O2 concentration was measured using the modified Amplex red/horseradish peroxidase (HRP) detection method as described previously. Briefly, a H2O2 solution was incubated with the test compound for 10 min at room temperature (RT), and then the reaction solution containing 20 mM Amplex red and 200 U/mL HRP was added. The absorbance was measured at 570 nm using a microplate reader. The H2O2 scavenging capacities were compared to a blank negative control and to the known H2O2 scavenger epigallocatechin gallate (EGCG) as a positive control.

[5] = tested on: A53T mutant α-synuclein-overexpressing PD model rats; assay: A53T mutant α-synuclein rat model: stepping test and cylinder test; assay type: in vivo; settings: 10 mg/kg/day for 15 days
Description: as §1
Motor dysfunction of A53T α-synuclein model rats was tested using the forelimb-use asymmetry test (cylinder test). Briefly, animals were placed in a transparent Plexiglas cylinder (20 cm in diameter and 30 cm in height) for 2 min to assess the frequency of ipsilesional and contralesional forelimb usage against the cylinder wall for supporting an upright body posture. The test score was calculated as the ratio of ipsilateral usage frequency to total ipsilateral plus contralateral usage frequency.

[6] = target: T1, human recombinant MAO-A (hMAO-A) (Homo sapiens, UniProt P21397); settings: ref Park, JH. et al. Science Advances. 5(3), eaav0136 (2019), read-out: Inhibition (IC50) MAO-A; cited from earlier work
T1 construct: purchased Sigma Aldrich
T1 sequence (P21397 1-527): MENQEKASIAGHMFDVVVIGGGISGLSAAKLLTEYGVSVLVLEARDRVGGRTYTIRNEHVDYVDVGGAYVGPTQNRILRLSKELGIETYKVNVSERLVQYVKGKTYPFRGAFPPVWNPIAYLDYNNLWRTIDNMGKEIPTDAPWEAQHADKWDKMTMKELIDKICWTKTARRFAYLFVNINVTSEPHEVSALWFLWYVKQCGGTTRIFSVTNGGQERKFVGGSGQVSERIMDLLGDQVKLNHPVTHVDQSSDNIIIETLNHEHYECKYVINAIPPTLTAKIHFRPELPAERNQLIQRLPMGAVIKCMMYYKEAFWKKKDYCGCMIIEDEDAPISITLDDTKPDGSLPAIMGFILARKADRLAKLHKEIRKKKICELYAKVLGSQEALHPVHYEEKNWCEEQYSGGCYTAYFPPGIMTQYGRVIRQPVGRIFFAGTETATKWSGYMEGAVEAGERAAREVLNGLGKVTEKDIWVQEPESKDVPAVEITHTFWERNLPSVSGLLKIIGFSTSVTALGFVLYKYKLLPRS

[7] = tested on: MPTP-induced PD mouse model; assay: MPTP mouse model: glial reactivity (GFAP, LCN2, Iba1 staining, western blot); assay type: in vivo; settings: MPTP mice
Description: as §1
After extensive washing, sections were incubated with corresponding fluorescent secondary antibodies for 2 h and then washed with three times in PBS. Finally, sections were mounted with fluorescent mounting medium (S3023, Dako) and dried. A series of fluorescent images were obtained using an A1 Nikon confocal microscope, and Z-stack images in 3-μm steps were processed for further analysis using ImageJ. Any alteration in brightness or contrast was applied equally to the entire image set.

[8] = target: T2, human recombinant MAO-B (hMAO-B) (Homo sapiens, UniProt P27338); settings: cited from earlier work
T2 construct: purchased Sigma Aldrich
T2 sequence (P27338 1-520): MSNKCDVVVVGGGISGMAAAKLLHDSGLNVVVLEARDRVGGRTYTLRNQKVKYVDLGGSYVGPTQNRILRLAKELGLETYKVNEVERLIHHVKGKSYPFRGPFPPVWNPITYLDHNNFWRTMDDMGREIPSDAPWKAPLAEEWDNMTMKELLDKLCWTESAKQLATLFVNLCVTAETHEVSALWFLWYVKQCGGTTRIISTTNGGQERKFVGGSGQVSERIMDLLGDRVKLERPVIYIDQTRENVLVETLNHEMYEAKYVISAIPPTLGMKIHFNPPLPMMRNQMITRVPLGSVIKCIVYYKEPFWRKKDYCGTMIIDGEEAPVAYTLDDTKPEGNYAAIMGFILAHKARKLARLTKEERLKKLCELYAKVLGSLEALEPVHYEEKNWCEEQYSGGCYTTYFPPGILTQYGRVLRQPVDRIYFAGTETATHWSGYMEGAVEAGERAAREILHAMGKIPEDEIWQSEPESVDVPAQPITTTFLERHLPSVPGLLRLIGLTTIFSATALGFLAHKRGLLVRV

## C[C@H](NCc1ccc(-c2ccc(C(F)(F)F)cc2)cc1)C(N)=O [Compound 18j]
[1]; both sexes, cynomolgus monkey, plasma, po, cynomolgus monkeys, 10, 20 or 40 mg/kg/day p.o.
  Tmax: 4.72 ± 1.93 h
[1]; cynomolgus monkeys, 10, 20, 40 mg/kg/day p.o.
  dose-dependent increase of AUClast: slightly less than proportional
[2]
  post-stroke recovery: dramatically improved
[3]
  number of remaining TH-positive neurons in the injected SNpc: increased
  striatal TH loss: significantly reversed
[4]
  H2O2 scavenging effect: did not show any H2O2 scavenging effect
[5]
  cylinder test: asymmetric usage of forelimbs: alleviated
  stepping test: impaired stepping behavior of the contralateral forepaw: significantly alleviated
[6]
  IC50: > 100 µM
[7]
  GFAP staining intensity in SNpc: significantly reduced
  LCN2 expression in GFAP-positive astrocytes: reversed
  number of Iba1-positive microglia in SNpc: significantly reduced
  reactive transformation of microglia (larger cell bodies, shorter processes): reversed
  volume of GFAP-positive astrocytes in SNpc (hypertrophy): eliminated
[7]; SNpc
  MPTP-induced changes of TH, GFAP and iNOS expression (western blotting): all of these changes were reversed
[8]; same binding cavity as selegiline
  mode of MAO-B inhibition: competitive inhibitor
[8]; with enantiomeric selectivity
  reversibility of MAO-B inhibition: reversible
